Columns and labels:
Type in all cases: physicochemical
[1] = Screening of stabilizer for colorant, overall statements (Example 13); conditions: Tables 2-1 and 2-2
Protocol: (§1) Tween-20 (1%), Brij35 (1%), Triton X-100 (1%), deoxycholic acid (1%), imino-diacetic acid (IDA; 1 mM), ZnSO4 (0.1 mM), AlCl3 (0.1 mM), potassium ferrocyanate (0.01 mM), sorbitol (5%), glucose (5%), sodium nitrite (2 mM), dimethylsulfoxide (DMSO; 10%) (those substances are manufactured by Wako Pure Chemical Industries, Inc.), 2-hydroxypropyl-β-cyclodextrin (2HP β CD; 0.5%, 2%, 5%) and methyl-β-cyclodextrin (M β CD; 0.5%, 2%, 5%) (those substances are manufactured by Nihon Shokuhin Kako Co., Ltd.).
(§2) 500 μl of the R-1 reagent and 500 μl of the R-2 which had been incubated to 37° C. were mixed. The mixture was incubated to 37° C. for 2 minutes, and absorbance thereof (A0) was measured. The mixture was added with 10 μl of 500 μM hydrogen peroxide or distilled water. The whole was incubated to 37° C., and absorbance exactly 5 minutes after the addition of hydrogen peroxide (A1) was measured, to calculate a change in absorbance ΔA (A1-A0). The absorbance was measured using a wavelength of 750 nm when DA64 was used as the colorant, a wavelength of 660 nm when DA67 was used as the colorant, and a wavelength of 570 nm when 4-AA-TOOS was used as the colorant.
(§3) Immediately after the preparation of the reagent, the reagent was preserved at 37° C. for 2 days and 9 days, and measurement of sensitivity of a blank which was distilled water and of hydrogen peroxide was performed.

[2] = Screening of stabilizer for colorant, MBTH-TOOS (Example 13); conditions: MBTH-TOOS, 37° C.; for blank (distilled water) change in absorbance: 570 nm, additives at conc. (1%; IDA 1 mM; Zn, Al 0.1 mM; ferrocyanide 0.01 mM; sorbitol 5%; DMSO 10%)
[3] = Screening of stabilizer for colorant, DA64 (Example 13); conditions: 37° C.; for blank (distilled water) change in absorbance: DA-64, 750 nm, additives at conc. (1%; IDA 1 mM; Zn, Al 0.1 mM; ferrocyanide 0.01 mM; sorbitol 5%; DMSO 10%); for change in absorbance when 500 μM of hydrogen peroxide was measured: DA-64
Protocol: (§4) The following substances were used as test samples. Note that concentrations described in parentheses each represent a final concentration of the substance in the reagent R-1.
as §1, §2, §3

[4] = Screening of stabilizer for colorant, DA67 (Example 13); conditions: 37° C.; for blank (distilled water) change in absorbance: DA-67, 660 nm; for change in absorbance when 500 μM of hydrogen peroxide was measured: DA-67
Protocol: as §4, §1, §2, §3

[5] = 0 days, additives at conc. (1%; IDA 1 mM; Zn, Al 0.1 mM; ferrocyanide 0.01 mM; sorbitol 5%; DMSO 10%)
[6] = 2 days, additives at conc. (1%; IDA 1 mM; Zn, Al 0.1 mM; ferrocyanide 0.01 mM; sorbitol 5%; DMSO 10%)
[7] = 9 days, additives at b284 conc. (Zn, Al 0.1 mM; ferrocyanide 0.01 mM)

Substance | effect on the blank during preservation (in words) [1] | blank (distilled water) change in absorbance ([2]; 0 days) [Abs] | blank (distilled water) change in absorbance ([2]; 2 days) [Abs] | change in absorbance when 500 μM of hydrogen peroxide was measured ([2]; 0 days, cyclodextrin 0.5%) | change in absorbance when 500 μM of hydrogen peroxide was measured ([2]; 0 days, cyclodextrin 2.0%) | change in absorbance when 500 μM of hydrogen peroxide was measured ([2]; 0 days, cyclodextrin 5.0%) | change in absorbance when 500 μM of hydrogen peroxide was measured ([2]; 2 days, cyclodextrin 0.5%) | change in absorbance when 500 μM of hydrogen peroxide was measured ([2]; 2 days, cyclodextrin 2.0%) | change in absorbance when 500 μM of hydrogen peroxide was measured ([2]; 2 days, cyclodextrin 5.0%) | blank (distilled water) change in absorbance ([3]; 0 days) [Abs] | blank (distilled water) change in absorbance ([3]; 2 days) [Abs] | blank (distilled water) change in absorbance ([3]; 9 days) [Abs] | change in absorbance when 500 μM of hydrogen peroxide was measured ([3]; 0 days, cyclodextrin 0.5%) | change in absorbance when 500 μM of hydrogen peroxide was measured ([3]; 0 days, cyclodextrin 2.0%) | change in absorbance when 500 μM of hydrogen peroxide was measured ([3]; 0 days, cyclodextrin 5.0%) | change in absorbance when 500 μM of hydrogen peroxide was measured ([3]; 2 days, cyclodextrin 0.5%) | change in absorbance when 500 μM of hydrogen peroxide was measured ([3]; 2 days, cyclodextrin 2.0%) | change in absorbance when 500 μM of hydrogen peroxide was measured ([3]; 2 days, cyclodextrin 5.0%) | change in absorbance when 500 μM of hydrogen peroxide was measured ([3]; 9 days, cyclodextrin 0.5%) | change in absorbance when 500 μM of hydrogen peroxide was measured ([3]; 9 days, cyclodextrin 2.0%) | other results
2-hydroxypropyl-β-cyclodextrin [2HPβCD] | suppressing effects on the blank | 0.166 | 0.815 | 0.199 | 0.200 | 0.203 | 0.145 | 0.155 | 0.159 | −0.007 | 0.007 | 0.010 | 0.375 | 0.386 | 0.385 | 0.315 | 0.322 | 0.326 | 0.251 | 0.269 | change in absorbance when 500 μM of hydrogen peroxide was measured ([3]; 9 days, cyclodextrin 5.0%): 0.271; blank (distilled water) change in absorbance [4, 5]: 0.119 Abs; blank (distilled water) change in absorbance [4, 6]: 0.762 Abs; blank (distilled water) change in absorbance [4, 7]: 1.822 Abs; change in absorbance when 500 μM of hydrogen peroxide was measured ([4]; 0 days, cyclodextrin 0.5%): 0.531; change in absorbance when 500 μM of hydrogen peroxide was measured ([4]; 0 days, cyclodextrin 2.0%): 0.522; change in absorbance when 500 μM of hydrogen peroxide was measured ([4]; 0 days, cyclodextrin 5.0%): 0.528; change in absorbance when 500 μM of hydrogen peroxide was measured ([4]; 2 days, cyclodextrin 0.5%): 0.301; change in absorbance when 500 μM of hydrogen peroxide was measured ([4]; 2 days, cyclodextrin 2.0%): 0.306; change in absorbance when 500 μM of hydrogen peroxide was measured ([4]; 2 days, cyclodextrin 5.0%): 0.309; change in absorbance when 500 μM of hydrogen peroxide was measured ([4]; 9 days, cyclodextrin 0.5%): 0.277; change in absorbance when 500 μM of hydrogen peroxide was measured ([4]; 9 days, cyclodextrin 2.0%): 0.279; change in absorbance when 500 μM of hydrogen peroxide was measured ([4]; 9 days, cyclodextrin 5.0%): 0.281
methyl-β-cyclodextrin [MβCD] | suppressing effects on the blank | 0.115 | 0.757 | 0.175 | 0.18 | 0.181 | 0.135 | 0.136 | 0.145 | −0.01 | 0.005 | 0.006 | 0.371 | 0.376 | 0.365 | 0.302 | 0.309 | 0.315 | 0.266 | 0.271 | change in absorbance when 500 μM of hydrogen peroxide was measured ([3]; 9 days, cyclodextrin 5.0%): 0.273; blank (distilled water) change in absorbance [4, 5]: 0.133 Abs; blank (distilled water) change in absorbance [4, 6]: 0.657 Abs; blank (distilled water) change in absorbance [4, 7]: 1.430 Abs; change in absorbance when 500 μM of hydrogen peroxide was measured ([4]; 0 days, cyclodextrin 0.5%): 0.516; change in absorbance when 500 μM of hydrogen peroxide was measured ([4]; 0 days, cyclodextrin 2.0%): 0.519; change in absorbance when 500 μM of hydrogen peroxide was measured ([4]; 0 days, cyclodextrin 5.0%): 0.515; change in absorbance when 500 μM of hydrogen peroxide was measured ([4]; 2 days, cyclodextrin 0.5%): 0.355; change in absorbance when 500 μM of hydrogen peroxide was measured ([4]; 2 days, cyclodextrin 2.0%): 0.361; change in absorbance when 500 μM of hydrogen peroxide was measured ([4]; 2 days, cyclodextrin 5.0%): 0.364; change in absorbance when 500 μM of hydrogen peroxide was measured ([4]; 9 days, cyclodextrin 0.5%): 0.306; change in absorbance when 500 μM of hydrogen peroxide was measured ([4]; 9 days, cyclodextrin 2.0%): 0.311; change in absorbance when 500 μM of hydrogen peroxide was measured ([4]; 9 days, cyclodextrin 5.0%): 0.323

Source: patent US8080423B2, “Reagent containing protease reaction promoter and/or colorant stabilizer” (Asahi Kasei Pharma Corporation, priority 2004, dated 2011)
